Source: paper PMC9430770 (Microbiology Spectrum, 2022)

Experiments:
C. albicans SC5314 = experiment: Spot assay on solid YPD or YPG plates containing BE; format: cell-based, Candida albicans; settings: 48 h, 30°C
Experimental: To test whether BE antifungal activity in C. albicans as well as in mammalian cells was carbon source dependent ([27]), we investigated the activity of BE in spot assays on both solid yeast extract-peptone-dextrose (YPD) (containing 20 mg/mL glucose) and solid YPG (containing 2% [vol/vol] glycerol) media.
FIG 1 The antifungal activity of BE depends on the carbon source. The overnight-cultured C. albicans SC5314 cells were diluted to 1 × 10^7 cells/mL and used as the initial concentration for four times of 10-fold dilution. Subsequently, 5 μL of a 10-fold dilution series was spotted onto YPD or YPG solid plates containing the indicated different concentrations of BE. After 48 h of incubation at 30°C, pictures of the growth of cells were taken.
The spotting assay was performed as described previously ([50]). Briefly, after grown overnight, mid-log-phase cultures of strains required for experimental conditions were adjusted to 1 × 10^7 cells/mL using a hemacytometer, then were 1:10 serially diluted in sterile PBS, and were spotted onto indicated plates with an indicated concentration of BE. After 48 h of incubation at 30°C, pictures of the growth of cells were taken.

[1] = molecular target: mutant Eno1 (D263A, S269A, and K273A) (Candida albicans, UniProt P30575, D263A/K273A/S269A); experiment: SPR binding of BE to mutant Eno1
Chain of mutant Eno1 (D263A, S269A, and K273A) (P30575 whole entry D263A/S269A/K273A): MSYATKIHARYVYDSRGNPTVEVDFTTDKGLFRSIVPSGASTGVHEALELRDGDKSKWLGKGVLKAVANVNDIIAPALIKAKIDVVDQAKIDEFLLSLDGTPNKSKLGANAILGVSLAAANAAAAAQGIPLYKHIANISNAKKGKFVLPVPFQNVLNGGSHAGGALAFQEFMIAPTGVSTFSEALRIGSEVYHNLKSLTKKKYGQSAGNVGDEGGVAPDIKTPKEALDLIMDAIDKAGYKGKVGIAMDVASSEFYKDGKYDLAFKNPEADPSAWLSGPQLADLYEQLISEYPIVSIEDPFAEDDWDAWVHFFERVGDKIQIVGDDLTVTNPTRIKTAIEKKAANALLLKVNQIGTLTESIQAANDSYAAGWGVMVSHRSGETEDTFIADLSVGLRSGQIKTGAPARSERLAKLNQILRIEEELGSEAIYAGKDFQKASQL
Description: SPR, surface plasmon resonance; RU, response unit.
The benzene ring with hydroxyl group can form a cation-π interaction with K273 (Fig. 6C). To confirm that D263, S269, and K273 play crucial roles in interacting with BE, we have mutated these three amino acids (D263A, S269A, and K273A) in CaEno1.

## O=c1cc(-c2ccccc2)oc2cc(O)c(O)c(O)c12 [BE, Baicalein]
C. albicans SC5314; 64 μg/mL BE, solid YPD medium (20 mg/mL glucose)
  antifungal activity (spot assay): had antifungal activity
C. albicans SC5314; 64 μg/mL BE, solid YPG medium (2% glycerol)
  antifungal activity (spot assay): not in solid YPG medium
C. albicans SC5314; 128 μg/mL BE, solid YPD medium
  antifungal activity (spot assay): potent antifungal activity
C. albicans SC5314; 128 μg/mL BE, solid YPG medium
  growth of C. albicans (spot assay): could still grow
[1]
  binding detected by SPR analysis: no binding
